The record followed here is article PMC11267923, “Metagenome-derived SusD-homologs affiliated with Bacteroidota bind to synthetic polymers” (Applied and Environmental Microbiology, 2024).

For experiment [1], the target named is T1, SusD38489 (SusD38489Δ1–25).
T1 construct: gene susD; Sec/SPII signal peptide 1-25 removed; C-terminal His6 from pET21a(+); expressed in E. coli BL21(DE3)
In words: SPR, Biacore T200, His-captured protein, single-cycle kinetics, […] fit. Also on record: species or system uncultured Bacteroidota bacterium. Particulars: 25 °C; 0.1 M potassium phosphate pH 7 reference buffer; one binding site. (In general: SPR reads the build-up and loss of mass on a sensor chip optically.)

Another experiment has as its target T2, SusD1 (SusD1Δ1–22) (Prevotella sp. Sc00044, UniProt W5QTG3).
T2 construct: gene susD; Sec/SPII signal peptide 1-22 removed; C-terminal His6 from pET21a(+); expressed in E. coli BL21(DE3)
The experiment is described as above. In kind it is binding.

T2 sequence (W5QTG3 23-580 limits assumed, stated change not applied): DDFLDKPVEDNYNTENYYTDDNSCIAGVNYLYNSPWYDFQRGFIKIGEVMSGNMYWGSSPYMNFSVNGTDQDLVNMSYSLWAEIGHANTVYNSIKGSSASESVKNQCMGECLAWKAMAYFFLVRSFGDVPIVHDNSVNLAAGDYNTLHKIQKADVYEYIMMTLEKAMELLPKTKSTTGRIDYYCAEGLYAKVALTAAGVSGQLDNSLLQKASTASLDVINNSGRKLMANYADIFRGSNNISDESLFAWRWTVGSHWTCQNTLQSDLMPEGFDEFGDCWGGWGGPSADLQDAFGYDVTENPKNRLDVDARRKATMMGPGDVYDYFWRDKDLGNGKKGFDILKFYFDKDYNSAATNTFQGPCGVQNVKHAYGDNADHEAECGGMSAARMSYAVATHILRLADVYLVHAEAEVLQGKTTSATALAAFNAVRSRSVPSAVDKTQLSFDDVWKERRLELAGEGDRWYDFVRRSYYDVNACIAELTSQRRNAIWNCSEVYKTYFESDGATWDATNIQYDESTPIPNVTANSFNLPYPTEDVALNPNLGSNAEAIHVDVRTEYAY

The term Kd denotes the equilibrium constant for the complex coming apart. For `O=C(OCCO)c1ccc(C(=O)OCCO)cc1` [BHET, Bis(2-Hydroxyethyl) terephthalate], the Kd came out at 10 nM in experiment [1] and 0.3 nM on SusD1 (SusD1Δ1–22).
